Measurements published in the supplement of paper PMC10307832.

Assays:
Experiment in all cases: relative viability (nuclei count vs DMSO), 5 days (fraction); higher = more cells survive
Temozolomide + AZD7762 = compound: Cn1nnc2c(C(N)=O)ncn2c1=O [Temozolomide] + NC(=O)Nc1cc(-c2cccc(F)c2)sc1C(=O)N[C@H]1CCCNC1 [AZD7762] (partner 0.2 µM)
In short: (§1)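 Nuclei were stained with Hoechst during a one-step fixation (final 0.05% Triton X-100, 1% formaldehyde, 1 ug/ml Hoechst) carried out 5 days after dosing, then counted on 4× images. The cells, lung cancer lines in 1536-well plates, had been dosed by pin tool the day after seeding with one drug alone or a fixed anchor-drug dose plus five library-drug doses (not always all listed) in √10 steps. Relative viability is the nuclei count in treated wells divided by that in vehicle wells, and each value is the median of duplicate plates.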

AZD5582 + Navitoclax = compound: C[C@@H](C(=O)N[C@@H](C1CCCCC1)C(=O)N2CCC[C@H]2C(=O)N[C@@H]3[C@@H](CC4=CC=CC=C34)OCC#CC#CCO[C@@H]5CC6=CC=CC=C6[C@@H]5NC(=O)[C@@H]7CCCN7C(=O)[C@H](C8CCCCC8)NC(=O)[C@H](C)NC)NC [AZD5582] + CC1(C)CCC(c2ccc(Cl)cc2)=C(CN2CCN(c3ccc(C(=O)NS(=O)(=O)c4ccc(N[C@H](CCN5CCOCC5)CSc5ccccc5)c(S(=O)(=O)C(F)(F)F)c4)cc3)CC2)C1 [Navitoclax] (partner 0.5 µM)
In short: as §1

[1] = compound: Cn1nnc2c(C(N)=O)ncn2c1=O [Temozolomide] + CC(C)C[C@H](NC(=O)[C@H](Cc1ccccc1)NC(=O)c1cnccn1)B(O)O [Bortezomib] (partner 0.002 µM)
In short: as §1

AZD5582 + Foretinib = compound: C[C@@H](C(=O)N[C@@H](C1CCCCC1)C(=O)N2CCC[C@H]2C(=O)N[C@@H]3[C@@H](CC4=CC=CC=C34)OCC#CC#CCO[C@@H]5CC6=CC=CC=C6[C@@H]5NC(=O)[C@@H]7CCCN7C(=O)[C@H](C8CCCCC8)NC(=O)[C@H](C)NC)NC [AZD5582] + COc1cc2c(Oc3ccc(NC(=O)C4(C(=O)Nc5ccc(F)cc5)CC4)cc3F)ccnc2cc1OCCCN1CCOCC1 [Foretinib] (partner 0.25 µM)
In short: as §1

AZD5582 + Pictilisib = compound: C[C@@H](C(=O)N[C@@H](C1CCCCC1)C(=O)N2CCC[C@H]2C(=O)N[C@@H]3[C@@H](CC4=CC=CC=C34)OCC#CC#CCO[C@@H]5CC6=CC=CC=C6[C@@H]5NC(=O)[C@@H]7CCCN7C(=O)[C@H](C8CCCCC8)NC(=O)[C@H](C)NC)NC [AZD5582] + CS(=O)(=O)N1CCN(Cc2cc3nc(-c4cccc5[nH]ncc45)nc(N4CCOCC4)c3s2)CC1 [Pictilisib] (partner 1 µM)
In short: as §1

NCI-H1703
relative viability (Temozolomide + AZD7762; first compound 0.2 µM): 0.137 | relative viability (Temozolomide + AZD7762; first compound 0.6325 µM): 0.1 | relative viability (Temozolomide + AZD7762; first compound 2 µM): 0.125 | relative viability (Temozolomide + AZD7762; first compound 6.325 µM): 0.147 | relative viability (Temozolomide + AZD7762; first compound 20 µM): 0.107 | relative viability (AZD5582 + Navitoclax; first compound 0.001581 µM): 0.874 | relative viability (AZD5582 + Navitoclax; first compound 0.005 µM): 0.807 | relative viability (AZD5582 + Navitoclax; first compound 0.01581 µM): 1.03 | relative viability (AZD5582 + Navitoclax; first compound 0.05 µM): 0.557 | relative viability ([1]; first compound 0.2 µM): 0.29 | relative viability ([1]; first compound 0.6325 µM): 0.471 | relative viability ([1]; first compound 2 µM): 0.365 | relative viability ([1]; first compound 6.325 µM): 0.241 | relative viability ([1]; first compound 20 µM): 0.284 | relative viability (AZD5582 + Foretinib; first compound 0.005 µM): 0.412 | relative viability (AZD5582 + Foretinib; first compound 0.01581 µM): 0.376 | relative viability (AZD5582 + Foretinib; first compound 0.05 µM): 0.372 | relative viability (AZD5582 + Pictilisib; first compound 0.005 µM): 0.255 | relative viability (AZD5582 + Pictilisib; first compound 0.01581 µM): 0.291 | relative viability (AZD5582 + Pictilisib; first compound 0.05 µM): 0.251
